Primed or numbered codes have the meaning given here. Where no end group is shown, it is not given here. [ ]: non-standard residue; d: D form. Dab′ = 2,3-diamino butyric acid; Nva = CCC[C@H](N)C(=O)O
What was measured:
[1] = test system: experimental dry eye (EDE) mice; test: Corneal fluorescein staining score in experimental dry eye (EDE) mice; format: in vivo, C57BL/6 mice; settings: 0.01% in BSS, 3 times a day; for corneal staining (corneal irregularity) compared to untreated EDE mice: topical bilateral 2 μl/eye, score 0-4 averaged over five regions, day 5 and day 10, p-value <0.05 vs. EDE; for corneal surfaces compared to untreated normal mice (UT) and positive control globular adiponectin-treated mice (gAdipo): topical, EDE mice
Method: (§1) Experimental dry eye (EDE) was induced in 8-week old female C57BL/6 mice by subcutaneous injection of 0.5 mg/0.2 mL scopolamine hydrobromide (Sigma-Aldrich, St. Louis, Mo.) three times a day (9 AM, 1:30 PM and 6 PM). A dose of 0.3 mL scopolamine hydrobromide was administered at each injection. The mice were also exposed to an air draft and 30% ambient humidity. 6 experimental groups used in this study included: (1) untreated control mice (UT; no dry eye treatment and no topical treatment); (2) untreated EDE control mice (EDE; received no topical administration); (3) EDE control mice received a balanced salt solution (BSS); (4) EDE mice received 0.01% single chain adiponectin peptidomimetic (ADP355) in BSS; (5) EDE mice receiving 0.01% peptide dimer adiponectin peptidomimetic (ADP399) in BSS; and (6) EDE mice receiving 0.01% recombinant globular adiponectin (gAdipo) in BSS. Each group included 5 mice. EDE mice treated with BSS received topical bilateral administration of […], 3 times a day. EDE mice treated with ADP355 received topical bilateral administration of 2 μl/eye, 3 times a day. EDE mice treated with ADP-399 received topical bilateral administration of 2 μl/eye, 3 times a day. The gAdipo treated mice served as a positive treatment control. Mice were evaluated at baseline, day 5 and day 10 after the treatment initiation. In some experiments, ADP355, ADP-399 and gAdipo were resuspended in 0.01% BSA.
The severity of corneal epithelial damage was evaluated by corneal fluorescein staining. Briefly, 1% fluorescein dye (1 μl) was instilled into the eye and then the eye was washed with saline. 10 minutes after application of the dye, the eye was photographed with a slip lamp microscope using a cobalt blue light. The stained area was graded using a scoring system by two blinded observers. […] The average score from the five regions was recorded. […] In addition, the adiponectin peptidomimetic-treated mice (ADP355 and ADP-399) had corneal surfaces that were similar to those of untreated normal mice (UT) and positive control globular adiponectin-treated mice (gAdipo). The corneal surface scores in all groups at day 10 were similar to those at day 5 after treatment initiation.

[2] = test system: experimental dry eye (EDE) mice; test: Tear volume by phenol red thread tear test in experimental dry eye (EDE) mice; format: in vivo, C57BL/6 mice; settings: 0.01% in BSS, 3 times a day; for tear production, as measured by tear volume, compared to untreated or BSS treated EDE mice: topical bilateral 2 μl/eye, day 5 and day 10 after treatment initiation, p-value <0.05 vs. EDE; for difference in tear volume among those treated with ADP355, ADP399 and globular adiponectin: topical, EDE mice
Method: as §1
Tear volume was measured using a phenol red thread tear test. Briefly, a cotton thread treated with phenol red at its tip (Zone-Quick; Oasis, Glendora, Calif.) was held with jeweler's forceps and placed in the tear meniscus of the lateral canthus for 20 secs to contact tear fluid. Using a microscope, the length of the red portion (wet portion) of the thread was measured in millimeters. A standard curve was derived to convert the distance measurement into tear volume.

Substance	corneal staining (corneal irregularity) compared to untreated EDE mice [1]	corneal surfaces compared to untreated normal mice (UT) and positive control globular adiponectin-treated mice (gAdipo) [1]	tear production, as measured by tear volume, compared to untreated or BSS treated EDE mice [2]	difference in tear volume among those treated with ADP355, ADP399 and globular adiponectin [2]
(DAsn-Ile-Pro-Nva-Leu-Tyr-DSer-Phe-Ala-DSer-His-Pro)2-Dab-NH2 ([dN]IP[Nva]LY[dS]FA[dS]HP[Dab′]-NH2; also: branched dimer: two chains joined via Dab) [ADP399, linear branched dimer of ADP355]	less corneal staining	similar	higher	no significant difference
DAsn-Ile-Pro-Nva-Leu-Tyr-DSer-Phe-Ala-DSer-NH2 ([dN]IP[Nva]LY[dS]FA[dS]-NH2; N-terminus assumed; SMILES CCC[C@H](NC(=O)[C@@H]1CCCN1C(=O)[C@@H](NC(=O)[C@H](N)CC(N)=O)[C@@H](C)CC)C(=O)N[C@@H](CC(C)C)C(=O)N[C@@H](Cc1ccc(O)cc1)C(=O)N[C@H](CO)C(=O)N[C@@H](Cc1ccccc1)C(=O)N[C@@H](C)C(=O)N[C@H](CO)C(N)=O) [ADP355, single chain adiponectin peptidomimetic]	less corneal staining	similar	higher	no significant difference

Source: patent US11464825B2, “Adiponectin peptidomimetics for treating ocular disorders” (Allysta Pharmaceuticals, Inc., priority 2015, dated 2022)
